From patent US20120039917A1, “IMMUNO[…]” (priority 2008, published 2012)
Read-outs that look alike come from different tables or passages of the source.

Tests used:
proliferating T cells [1] = assay: Cell proliferation measured by MTT reduction; format: cell-based; settings: Homo sapiens, 48 h incubation, read-out: IC50 inhibition of MTT reduction (proliferation)
Protocol: (§1) Immediately prior to experiments, frozen PBMC were thawed, centrifuged at 1400 rpm in a Multifuge 3 s (Heraeus) for 4 min, washed in RPMI+10% FCS and resuspended in T cell medium (RPMI+10% FCS+10 μM 2-mercaptoethanol (Sigma), 1×glutamine, 1×non-essential amino acids (Gibco)) at 2×10^6 cells/mL. Cells (2×10^5) were activated by adding 10 μg/mL anti-CD3 and 5 μg/mL anti-CD28 and 20 U/mL IL-2 per well. Cells were incubated at 37° C. in a humidified incubator maintained at 5% CO2 for 4 to 5 days until large numbers of large spherical aggregates or “bursts” of lymphocytes were observed. Activated proliferating T cells were pooled from the wells for further experiments. Resting T cells were incubated for the same length of time but in the presence of 20 U/mL IL-2 only.
(§2) MTT reduction was measured as previously described (Berridge et al., 1996) in a microplate format as follows: exponentially growing cells were centrifuged at 1400 rpm in a Multifuge 3 s (Heraeus) for 4 min, washed and resuspended in HBSS buffer. […] After 2 h, 100 μL of lysing buffer was added and formazan crystals dissolved by manual pipetting using a multichannel pipette before measuring A570 in a BMG FLUOstar OPTIMA plate reader. […]

resting T cells [2] = assay: Cell proliferation measured by MTT reduction; format: cell-based; settings: Homo sapiens, 48 h incubation, read-out: IC50 inhibition of MTT reduction (proliferation)
Protocol: as §1, §2

proliferating T cells [3] = assay: Apoptosis/viability by Annexin V/propidium iodide staining; format: cell-based; settings: Homo sapiens, T-cell
Protocol: as §1
Cells were centrifuged at 1400 rpm in a Multifuge 3 s (Heraeus) for 4 min at room temperature, washed in phosphate buffered saline solution, pH 7.3 (PBS) and resuspended in Annexin V binding buffer. Small aliquots (0.5-1×10^6 cells) were transferred to 1.5 mL tubes and spun at 1400 rpm in a Multifuge 3 s (Heraeus) for 4 min. Most supernatant was removed and 5 μL PI and 5 μL FITC-labelled AV was added to the wet pellets which were vortexed. After 30 min in the dark on ice, 500 μl of AV binding buffer was added, the cells were centrifuged for 2 min at 1400 rpm, washed once with AV binding buffer and resuspended in 300 μL of AV binding buffer in FACS tubes. Staining was analyzed by flow cytometry using a Becton Dickinson Canto II FACS analyser using FlowJo (TreeStar) software.
The extent of apoptosis in resting and proliferating T cells was determined after 24 h exposure to 10 μM PXD (FIG. 2) by AV/PI staining. […] Resting T cells were not affected (FIG. 2D). The percentage of viable proliferating T cells dropped from 74% (FIG. 2F) to 51% after exposure to 10 μM PXD for 24 h (FIG. 2H), whilst the percentage of viable resting T cells was unaltered (FIGS. 2B and D).
In order to investigate whether cells need to be exposed continually to PXD for its effects to manifest, proliferating T cells were exposed to 10 μM PXD for different periods of time, washed cells twice in RPMI and incubated for a further 24 h in fresh T cell medium.

[4] = as above; format: cell-based, human; settings: human, resting T cells from PBMC; resting T cells, 10 μM PXD for 24 h; read-out: [% viable blasts after PXD exposure]/[% viable blasts after 0.1% DMSO exposure]
Protocol: as §1
(§3) Cells were centrifuged at 1400 rpm in a Multifuge 3 s (Heraeus) for 4 min at room temperature, washed in phosphate buffered saline solution, pH 7.3 (PBS) and resuspended in Annexin V binding buffer. Small aliquots (0.5-1×10^6 cells) were transferred to 1.5 mL tubes and spun at 1400 rpm in a Multifuge 3 s (Heraeus) for 4 min. […] Staining was analyzed by flow cytometry using a Becton Dickinson Canto II FACS analyser using FlowJo (TreeStar) software.
(§4) The extent of apoptosis in resting and proliferating T cells was determined after 24 h exposure to 10 μM PXD (FIG. 2) by AV/PI staining. […]

resting T cells [5] = assay: as above; format: cell-based, human; settings: 10 μM PXD for 24 h
Protocol: as §1, §3, §4

responder T cells = assay: HLA-mismatched mixed lymphocyte reaction in the presence of PXD; format: cell-based, human; settings: 10 μM PXD on day 0, analysed day 8
Protocol: (§5) Mixed lymphocyte reactions were established using unrelated, HLA-mismatched healthy donor blood samples as donor/recipient pairs. Stimulator PBMC were γ-irradiated with 30 Gy as described previously (Zenhausen et al., 2007). Responder PBMC were washed twice in PBS, 5,6-carboxy-succinimidyl-fluorescein-ester (CSFE)-labelled (1.25 μM, Sigma) at room temperature for 5 minutes, and washed twice in PBS/10% FCS. Two hundred thousand stimulator and responder cells were added per well at a 1:1 ratio in a 96 U-well plate in T cell medium. Stimulator and responder cells were also plated alone, and all cells were cultured in a 5% CO2, 37° C. humidified incubator. Viability, CFSE fluorescence and cell surface antigen expression were determined by flow cytometry. Cells were washed twice in FACS buffer (PBS, 2% FCS), and resuspended in 50 μL/5×10^5 cells and analysed on a Becton Dickinson LSRII FACS analyser using FlowJo (TreeStar) software.
The ability of PXD to induce apoptosis in proliferating T cells was further tested in a HLA-mismatched MLR. CFSE labelled responder cells were mixed with HLA-mismatched γ-irradiated stimulator cells in the presence of 0.1% DMSO (control) and 10 μM PXD on day 0. Responder cells were analysed for proliferation (CFSEIO) and viability (AV^−) at day 8 to allow exposure of proliferating responder cells to the drug for several days.

[6] = test system: resting responder T cells; assay: Third party MLR of resting responder T cells sorted after PXD exposure; format: cell-based, human; settings: 10 μM PXD added day 5 of first MLR; sorted day 8, restimulated without PXD
Protocol: as §5
The experiment described above was expanded by determining the effect of PXD exposure on responder T cells that had previously been exposed to, but not activated in a MLR. Two consecutive sets of MLRs were set up, mixing responder T cells and γ-irradiated stimulator cells on day 0, adding 10 μM PXD or 0.1% DMSO on day 5, and analysing proliferation and viability of responder T cells on day 8. […]

Oc1ccc(C2=Cc3ccc(O)cc3OC2)cc1 [PXD, Isoflav-3-en-4′,7-diol]
IC50 (proliferating T cells [1]): 5.4 µM
IC50 (resting T cells [2]): > 200 µM
viability at 10 µM (proliferating T cells [3]; 24 h, 10 μM PXD for 24 h, control 74%, read-out: percentage of viable proliferating T cells (AV/PI)): 51%
viability at 10 µM (proliferating T cells [3]; 24 h, proliferating T cells, 10 μM PXD for 24 h, read-out: [% viable blasts after PXD exposure]/[% viable blasts after 0.1% DMSO exposure]): 69 ± 4%
viability at 10 µM (proliferating T cells [3]; PXD pre-incubated in 10% FCS, 10 μM final, relative to 0.1% DMSO, read-out: % Viable cells after exposure time 24 h): 70 ± 7.1%
viability at 10 µM (proliferating T cells [3]; PXD pre-incubated in 10% FCS, 10 μM final, then 24 h, relative to 0.1% DMSO, read-out: % Viable cells after exposure time 1 min): 64 ± 4.6%
viability at 10 µM (proliferating T cells [3]; PXD pre-incubated in 10% FCS, 10 μM final, then 24 h, relative to 0.1% DMSO, read-out: % Viable cells after exposure time 10 min): 60 ± 7.1%
viability at 10 µM (proliferating T cells [3]; PXD pre-incubated in 90% FCS, 10 μM final, relative to 0.1% DMSO, read-out: % Viable cells after exposure time 24 h): 69 ± 7.2%
viability at 10 µM (proliferating T cells [3]; PXD pre-incubated in 90% FCS, 10 μM final, then 24 h, relative to 0.1% DMSO, read-out: % Viable cells after exposure time 1 min): 66 ± 4.2%
viability at 10 µM (proliferating T cells [3]; PXD pre-incubated in 90% FCS, 10 μM final, then 24 h, relative to 0.1% DMSO, read-out: % Viable cells after exposure time 10 min): 62 ± 5.7%
viability at 10 µM (proliferating T cells [3]; PXD pre-incubated in 90% Human Serum, 10 μM final, relative to 0.1% DMSO, read-out: % Viable cells after exposure time 24 h): 73.5 ± 9.2%
viability at 10 µM (proliferating T cells [3]; PXD pre-incubated in 90% Human Serum, 10 μM final, then 24 h, relative to 0.1% DMSO, read-out: % Viable cells after exposure time 1 min): 69 ± 4.4%
viability at 10 µM (proliferating T cells [3]; PXD pre-incubated in 90% Human Serum, 10 μM final, then 24 h, relative to 0.1% DMSO, read-out: % Viable cells after exposure time 10 min): 72 ± 7.3%
viability at 24 h, 10 μM [4]: 98 ± 6%
percentage of viable resting T cells (AV/PI) (resting T cells [5]): unaltered
resting responder cell population (CD3+CFSEhiAV−) (responder T cells): present in both control and PXD treated MLR
proliferating allogeneic T cells (CD3+CFSloAV− population) (responder T cells; control MLR 46.5%): 2%
viability and functionality of non-proliferating T cells [6]: affects neither the viability nor the functionality
